In US20100009997A1, “METHOD OF TREATING A METABOLIC OR NEUROPSYCHIARTY DISORDER WITH A BH4 DERIVATIVE PRODRUG” (BIOMARIN PHARMACEUTICAL INC., priority 2007, published 2010):

Columns and labels:
[1] = design: species or system Sprague Dawley rats; conditions: male, Sprague Dawley, rat, in vivo, po, 100 mg/kg
Experimental: This example allows for comparison of the pharmacokinetics of the BH4 derivative versus that of BH4 following single oral administration in rats.
Single doses of BH4 (10 and 100 mg/kg) were administered orally to a […] of male Sprague Dawley rats (6 weeks old) under fasting conditions. Single doses of Compound I were administered orally to a […] of male Sprague Dawley rats (6 weeks old) under fasting conditions.
With respect to the administered BH4, the maximum total biopterin concentrations in plasma 2 hrs and 1 hr post-dosing were 108 ng/ml (i.e., about 3 fold the endogenous level) and 1227 ng/ml (i.e., about 30 fold the endogenous level), respectively. […] The ratio of reduced biopterin to total biopterins in plasma (i.e., the reduced-form ratio) was relatively static (73%-96%).

[2] = design: species or system cynomolgus monkeys; conditions: female, cynomolgus monkey, in vivo, po, 10 mg/kg
Experimental: The example allows comparison of the pharmacokinetics of sapropterin and the BH4 derivative after a single oral administration in groups of cynomolgus monkeys.
A single dose of sapropterin (10 mg/kg) was administered orally to a first group of female cynomolgus monkeys (3/group) under fasting conditions. A single dose of Compound I (10 mg/kg) was administered orally to second group of female cynomolgus monkeys (3/group) under fasting conditions.
The bioavailability (F) following a 10 mg/kg oral administration to female monkeys was about 9%.

In the case of `C[C@H](O)[C@H](O)[C@H]1CNc2nc(N)[nH]c(=O)c2N1` [BH4, (6R)-5,6,7,8-tetrahydro-L-biopterin], the “biopterin elimination half-life (t1/2)” value [1] is reported as “about 1.1 hr”.

For `C[C@H](O)[C@H](O)[C@H]1CNc2nc(N)[nH]c(=O)c2N1` [sapropterin], the “bioavailability (F)” value [2] was “about 9%” and the “plasma elimination half-life of biopterin” value [2] was “approximately 1.4 hrs”.
